Experimental data reported in US4311689A, “Method and container for production of diagnostic scanning” (priority 1978, dated 1982).
Counter-ions that a name gives are not always drawn.

Assay: Bio-distribution in rats 2 hours post injection
Format: in vivo
Description: The complex was injected into rats which were sacrificed 2 hours post injection.

| SMILES | activity excreted in the urine (in words) | liver retention / uptake | activity excreted in the urine | activity retained in the kidneys | also measured |
| --- | --- | --- | --- | --- | --- |
| O=P(O)(O)CP(=O)(O)O [methylenediphosphonic acid] | most of the remainder |  |  |  | bone uptake: about 37% |
| Sc1cccc2cccnc12 [8-mercapto-quinolinehydrochloride] | small amount | about 37% |  |  | blood labelling: small amount; muscle uptake: ~15%; small intestine uptake: ~20% |
| O=C(O)CN(CCN(CC(=O)O)CC(=O)O)CCN(CC(=O)O)CC(=O)O |  |  | greater than 95% |  |  |
| O=C(O)CC(O)(CC(=O)O)C(=O)O [citric acid] |  |  | over 70% | about 11% | concentration in any other organ: no significant concentration |
| O=C[C@H](O)[C@@H](O)[C@H](O)[C@H](O)CO [d-glucose] | the bulk of the injected activity | about 5% |  | ~29% |  |
